Test results from US8691813B2, “Indole and benzoxazine derivatives as modulators of metabotropic glutamate receptors” (Janssen Pharmaceuticals, Inc., priority 2008, dated 2014).

What was measured:
[1] = molecular target: T1, human mGluR2 (Homo sapiens, UniProt Q14416); assay: [35S]GTPγS binding assay (PAM assay) using membranes from CHO cells transfected with the human mGluR2 receptor; format: biochemical; settings: in presence of glutamate at predetermined EC25 concentration, membranes containing human mGluR2, averages of duplicate values of 11-concentration response curves; for EC50: read-out: GTPγS -hR2 PAM pEC50 (converted)
T1 construct: expressed in transfected cells; host or cells: CHO cells (membrane preparation)
Description: The [^35S]GTPγS binding assay is a functional membrane-based assay used to study G-protein coupled receptor (GPCR) function whereby incorporation of a non-hydrolysable form of GTP, [^35S]GTPγS (guanosine 5′-triphosphate, labelled with […] ^35S), is measured.
CHO-cells were cultured to pre-confluence and stimulated with 5 mM butyrate for 24 hs, prior to washing in PBS (phosphate-buffered saline), and then collection by scraping in homogenisation buffer (50 mM Tris-HCl buffer, pH 7.4, 4° C.). Cell lysates were homogenized briefly (15 s) using an ultra-turrax homogenizer. The homogenate was centrifuged at 23 500×g for 10 min. and the supernatant discarded. The pellet was resuspended in 5 mM Tris-HCl, pH 7.4 and centrifuged again (30 000×g, 20 min., 4° C.). The final pellet was resuspended in 50 mM HEPES, pH 7.4 and stored at −80° C. in appropriate aliquots before use. Protein concentration was determined by the Bradford method (Bio-Rad, USA) with bovine serum albumin as standard.
Measurement of mGluR2 positive allosteric modulatory activity of test compounds in membranes containing human mGluR2 was performed using frozen membranes that were thawed and briefly homogenised prior to pre-incubation in 96-well microplates (15 μg/assay well, 30 minutes, 30° C.) in assay buffer (50 mM HEPES pH 7.4, 100 mM NaCl, 3 mM MgCl2, 50 μM GDP, 10 μg/ml saponin,) with increasing concentrations of positive allosteric modulator (from 0.3 nM to 50 μM) and either a minimal pre-determined concentration of glutamate (PAM assay), or no added glutamate. […] After addition of [^35S]GTPγS (0.1 nM, f.c.) to achieve a total reaction volume of 200 μl, microplates were shaken briefly and further incubated to allow [^35S]GTPγS incorporation on activation (30 minutes, 30° C.). The reaction was stopped by rapid vacuum filtration over glass-fibre filter plates (Unifilter 96-well GF/B filter plates, Perkin-Elmer, Downers Grove, USA) microplate using a 96-well plate cell harvester (Filtermate, Perkin-Elmer, USA), and then by washing three times with 300 μl of ice-cold wash buffer (Na2PO4.2H2O 10 mM, NaH2PO4.H2O 10 mM, pH=7.4). Filters were then air-dried, and 40 μl of liquid scintillation cocktail (Microscint-O) was added to each well, and membrane-bound [^35S]GTPγS was measured in a 96-well scintillation plate reader (Top-Count, Perkin-Elmer, USA). Non-specific [^35S]GTPγS binding is determined in the presence of cold 10 μM GTP. Each curve was performed at least once using duplicate sample per data point and at 11 concentrations.
The concentration-response curves of representative compounds of the present invention in the presence of added EC25 of mGluR2 agonist glutamate to determine positive allosteric modulation (PAM), were generated using the Prism GraphPad software (Graph Pad Inc, San Diego, USA).

T1 sequence (Q14416 19-872): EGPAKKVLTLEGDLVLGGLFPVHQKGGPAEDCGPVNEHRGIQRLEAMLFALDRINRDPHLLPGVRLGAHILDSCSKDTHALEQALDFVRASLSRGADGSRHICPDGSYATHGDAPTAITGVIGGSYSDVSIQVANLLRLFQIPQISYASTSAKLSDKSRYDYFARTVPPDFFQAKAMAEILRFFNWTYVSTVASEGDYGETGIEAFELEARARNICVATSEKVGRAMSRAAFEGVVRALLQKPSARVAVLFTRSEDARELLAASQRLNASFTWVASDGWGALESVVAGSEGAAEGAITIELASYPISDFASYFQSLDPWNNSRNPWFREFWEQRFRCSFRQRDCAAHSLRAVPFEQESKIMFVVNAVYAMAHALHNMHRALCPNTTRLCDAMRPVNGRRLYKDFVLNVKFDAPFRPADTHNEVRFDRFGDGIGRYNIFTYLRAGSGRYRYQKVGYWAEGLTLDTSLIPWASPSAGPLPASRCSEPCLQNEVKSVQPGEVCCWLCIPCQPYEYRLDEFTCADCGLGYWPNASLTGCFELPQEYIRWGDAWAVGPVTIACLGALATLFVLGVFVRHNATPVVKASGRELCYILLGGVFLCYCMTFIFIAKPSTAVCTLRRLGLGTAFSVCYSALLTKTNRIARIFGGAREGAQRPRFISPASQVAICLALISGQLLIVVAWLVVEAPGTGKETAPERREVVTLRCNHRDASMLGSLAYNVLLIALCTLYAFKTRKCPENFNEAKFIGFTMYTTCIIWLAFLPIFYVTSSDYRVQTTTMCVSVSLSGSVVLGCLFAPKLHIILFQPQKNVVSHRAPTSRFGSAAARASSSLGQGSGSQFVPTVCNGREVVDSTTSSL

melting point | EC50 [1] | GTPγS -hR2 PAM pEC50 [1] | Compound
171.1 °C | 501 nM |  | C[C@]1(O)CC[C@@H](n2ccc3cc(-c4ccn5c(CC(F)(F)F)cnc5c4C#N)ccc32)CC1 [Compound 22]
182.8 °C |  | 7.07 | FC(F)(F)Cc1cnc2c(Cl)c(-c3cc(Cl)c4[nH]ccc4c3)ccn12 [Compound 2, 8-Chloro-7-(7-chloro-M-indol-5-yl)-3-(2,2,2-trifluoroethyl)-imidazo[1,2-a]-pyridine]
131.6 °C | 166 nM |  | O[C@H]1CC[C@H](n2ccc3cc(-c4ccn5c(CC(F)(F)F)cnc5c4Cl)ccc32)CC1 [Compound 3]
172 °C |  |  | Cn1ccc2cc(-c3ccn4c(CC(F)(F)F)cnc4c3C#N)cc(Cl)c21 [Compound 10]
232.9 °C |  |  | N#Cc1c(-c2ccc3c(ccn3C3CCOCC3)c2)ccn2c(CC(F)(F)F)cnc12 [Compound 6]
175.3 °C |  | 6.96 | N#Cc1c(-c2cc(Cl)c3c(ccn3CC3CC3)c2)ccn2c(CC(F)(F)F)cnc12 [Compound 11]
 | 117 nM |  | N#Cc1c(-c2ccc3c(c2)OCCN3CC2CC2)ccn2c(CC(F)(F)F)cnc12 [Compound 12]
197.3 °C | 200 nM |  | N#Cc1c(-c2ccc3c(ccn3-c3ccc(F)cc3)c2)ccn2c(CC(F)(F)F)cnc12 [Compound 29]
 | 575 nM |  | CN1CCOc2cc(-c3ccn4c(CC(F)(F)F)cnc4c3C#N)ccc21 [Compound 15]
151.3 °C |  | 6.60 | FC(F)(F)Cc1cnc2c(Cl)c(-c3cc(Cl)c4c(ccn4CC4CC4)c3)ccn12 [Compound 18]
262.2 °C | 129 nM |  | C[C@]1(O)CC[C@H](n2ccc3cc(-c4ccn5c(CC(F)(F)F)cnc5c4Cl)ccc32)CC1 [Compound 4, trans-4-[5-[8-Chloro-3-(2,2,2-trifluoroethyl)-imidazo[1,2-a]pyridin-7-yl]-1H-indol-1-yl-]-1-methyl-cyclohexanol]
 | 1070 nM |  | CC(C)(O)Cn1ccc2cc(-c3ccn4c(CC(F)(F)F)cnc4c3C#N)ccc21 [Compound 9]
 | 219 nM |  | N#Cc1c(-c2ccc3c(ccn3-c3ccccc3)c2)ccn2c(CC(F)(F)F)cnc12 [Compound 28]
 | 112 nM |  | OC1CCC(N2CCOc3cc(-c4ccn5c(CC(F)(F)F)cnc5c4Cl)ccc32)CC1 (mixture of isomers) [Compound 5, 4-[7-[8-Chloro-3-(2,2,2-trifluoro-ethyl)-imidazo[1,2-a]pyridin-7-yl]-2,3-dihydro-4H-1,4-benzoxazin-4-yl]-cyclohexanol]
 | 191 nM |  | N#Cc1c(-c2ccc3c(c2)OCCN3[C@H]2CC[C@H](O)CC2)ccn2c(CC(F)(F)F)cnc12 [Compound 19]
 |  | 6.64 | Cn1ccc2cc(-c3ccn4c(CC(F)(F)F)cnc4c3C#N)ccc21 [Compound 7]
 | 331 nM |  | FC(F)(F)Cc1cnc2c(Cl)c(-c3ccc4c(ccn4-c4ncccn4)c3)ccn12 [Compound 25, 8-Chloro-7-(1-pyrimidin-2-yl-1H-indol-5-yl)-3-(2,2,2-trifluoro-ethyl)-imidazo[1,2-a]pyridine]
 | 468 nM |  | FC(F)(F)Cc1cnc2c(Cl)c(-c3ccc4c(ccn4-c4ccccn4)c3)ccn12 [Compound 24]
 | 33.9 nM |  | Cc1cc(Cn2ccc3cc(-c4ccn5c(CC(F)(F)F)cnc5c4C#N)ccc32)ccn1 [Compound 30]
 | 813 nM |  | CC(C)OCCn1ccc2cc(-c3ccn4c(CC(F)(F)F)cnc4c3C#N)ccc21 [Compound 14]
 | 380 nM |  | N#Cc1c(-c2cc(Cl)c3c(ccn3C3CCOCC3)c2)ccn2c(CC(F)(F)F)cnc12 [Compound 1, 7-[7-Chloro-1-(tetrahydro-pyran-4-yl)-1H-indol-5-yl]-3-(2,2,2-trifluoroethyl) imidazo[1,2-a]pyridine-8-carbonitrile]
117.9 °C |  |  | N#Cc1c(-c2ccc3c(ccn3CC3CC3)c2)ccn2c(CC(F)(F)F)cnc12 [Compound 13]
 | 245 nM |  | N#Cc1c(-c2ccc3c(ccn3[C@H]3CC[C@H](O)CC3)c2)ccn2c(CC(F)(F)F)cnc12 [Compound 16]
138.6 °C | 309 nM |  | C[C@]1(O)CC[C@H](n2ccc3cc(-c4ccn5c(CC(F)(F)F)cnc5c4C#N)ccc32)CC1 [Compound 21]
 | 117 nM |  | N#Cc1c(-c2ccc3c(ccn3Cc3ccncc3)c2)ccn2c(CC(F)(F)F)cnc12 [Compound 27]
